What all share (format): functional
In experiment [1] the test system is Prosopis farcta. Put plainly: Herbicidal activity against Prosopis farcta assessed as shoot dry weight at 1000 l/ha applied twice (reference value: 1.528 metric tons/ha).
Experiment [2] relates to Prosopis farcta. Put plainly: Herbicidal activity against Prosopis farcta assessed as shoot fresh weight at 1000 l/ha applied twice (reference value: 4.18 metric tons/ha).
Experiment [3] has as its system Prosopis farcta. Put plainly: Herbicidal activity against Prosopis farcta assessed as shoot fresh weight at 1000 l/ha applied twice followed by harvest measured after vegetative regrowth (reference value: 3.53 metric tons/ha).
Experiment [4] deals with Prosopis farcta. Put plainly: Herbicidal activity against Prosopis farcta assessed as shoot dry weight at 1000 l/ha applied once (reference value: 0.833 metric tons/ha).
The test system of experiment [5] is Prosopis farcta. Briefly: Herbicidal activity against Prosopis farcta assessed as shoot dry weight at 1000 l/ha applied twice followed by harvest measured after vegetative regrowth (reference value: 2.784 metric tons/ha).
Experiment [6] relates to Prosopis farcta. Put plainly: Herbicidal activity against Prosopis farcta assessed as shoot fresh weight at 1000 l/ha applied once (reference value: 1.72 metric tons/ha).
Experiment [7] deals with Prosopis farcta. Put plainly: Herbicidal activity against Prosopis farcta assessed as shoot dry weight at 1000 l/ha applied once followed by harvest measured after vegetative regrowth (reference value: 1.593 metric tons/ha).
Experiment [8] has as its system Prosopis farcta. Briefly: Herbicidal activity against Prosopis farcta assessed as shoot fresh weight at 1000 l/ha applied once followed by harvest measured after vegetative regrowth (reference value: 2.062 metric tons/ha).

Seven compounds from ChEMBL document CHEMBL3046855, “Chemical control of Prosopis farcta (Banks and Sol.) Macbride in the Jordan Valley” (2007) can be followed below.

Take `CCOc1cc(Oc2ccc(C(F)(F)F)cc2Cl)ccc1[N+](=O)[O-]` [OXYFLUORFEN]: the Activity in the experiment with Prosopis farcta [1] turned out to be 0.479 MT/ha; with Prosopis farcta [2] it was 0.96 MT/ha; in the experiment on Prosopis farcta [3], 1.47 MT/ha; with Prosopis farcta [4], 0.26 MT/ha; in the experiment on Prosopis farcta [5], 1.147 MT/ha; in the experiment with Prosopis farcta [6] it was 0.6 MT/ha. For the same compound, the Activity in the experiment with Prosopis farcta [7] amounted to 3.481 MT/ha; with Prosopis farcta [8], 4.511 MT/ha.
As to `O=C(O)COc1nc(Cl)c(Cl)cc1Cl` [TRICLOPYR], the Activity with Prosopis farcta [1] was 0.461 MT/ha; in the experiment on Prosopis farcta [2], 1.07 MT/ha; with Prosopis farcta [3], 0.05 MT/ha; in the experiment with Prosopis farcta [4], 0.567 MT/ha; in the experiment on Prosopis farcta [5], 0.05 MT/ha; in the experiment on Prosopis farcta [6] it was 1.21 MT/ha. Moreover, the Activity is recorded as 0.231 MT/ha in the experiment on Prosopis farcta [7] and 0.301 MT/ha in the experiment on Prosopis farcta [8].
Turning to `O=C(O)CNCP(=O)(O)O` [GLYPHOSATE], the Activity is recorded as 0.32 MT/ha with Prosopis farcta [1]; 0.71 MT/ha in the experiment with Prosopis farcta [2]; 1.23 MT/ha in the experiment on Prosopis farcta [3]; 0.491 MT/ha in the experiment on Prosopis farcta [4]; 0.976 MT/ha in the experiment with Prosopis farcta [5]; 1.05 MT/ha in the experiment with Prosopis farcta [6]. Further, the Activity in the experiment with Prosopis farcta [7] was 0.317 MT/ha; with Prosopis farcta [8], 0.432 MT/ha.
Turning to `Cc1cc(Cl)ccc1OC(C)C(=O)O` (stereo unspecified) [MECOPROP], the Activity with Prosopis farcta [1] came to 0.403 MT/ha; with Prosopis farcta [2], 0.93 MT/ha; in the experiment with Prosopis farcta [3] it was 1.46 MT/ha; in the experiment with Prosopis farcta [4], 0.423 MT/ha; with Prosopis farcta [5], 1.125 MT/ha; in the experiment with Prosopis farcta [6], 0.9 MT/ha. Moreover, the values for the Activity with Prosopis farcta [7] and in the experiment on Prosopis farcta [8] were 0.527 MT/ha and 0.655 MT/ha, respectively.
In the case of `CNC.O=C(O)COc1ccc(Cl)cc1Cl` [2,4-D-Dimethylammonium], the Activity in the experiment on Prosopis farcta [1] is reported as 0.345 MT/ha; with Prosopis farcta [2], 0.8 MT/ha; in the experiment on Prosopis farcta [3], 0.58 MT/ha; in the experiment on Prosopis farcta [4] it was 0.593 MT/ha; in the experiment with Prosopis farcta [5] it was 0.511 MT/ha; with Prosopis farcta [6], 1.27 MT/ha. Moreover, the Activity with Prosopis farcta [7] stood at 0.144 MT/ha; in the experiment with Prosopis farcta [8] it was 0.323 MT/ha.
In the case of `C[n+]1ccc(-c2cc[n+](C)cc2)cc1` [PARAQUAT], the Activity with Prosopis farcta [1] amounted to 0.404 MT/ha; in the experiment with Prosopis farcta [2], 0.93 MT/ha; with Prosopis farcta [3], 0.91 MT/ha; in the experiment with Prosopis farcta [4], 0.593 MT/ha; in the experiment with Prosopis farcta [5], 0.764 MT/ha; with Prosopis farcta [6], 1.27 MT/ha. Besides, the Activity is 0.647 MT/ha in the experiment with Prosopis farcta [7] and 0.757 MT/ha in the experiment on Prosopis farcta [8].
For `CCCCC(CC)COC(=O)COc1ccc(Cl)cc1Cl` (stereo unspecified), the Activity with Prosopis farcta [1] is reported as 0.365 MT/ha; in the experiment on Prosopis farcta [2] it was 0.8 MT/ha; with Prosopis farcta [3], 0.1 MT/ha; in the experiment on Prosopis farcta [4] it was 0.625 MT/ha; with Prosopis farcta [5] it was 0.063 MT/ha; with Prosopis farcta [6], 1.33 MT/ha. Besides, the Activity is listed as 0.213 MT/ha with Prosopis farcta [7] and 0.277 MT/ha in the experiment on Prosopis farcta [8].
